# US8518412B2, “Partial peptide of lacritin” (Senju Pharmaceutical Co, Ltd., priority 2009, dated 2013)
# Non-standard residues stand in square brackets, D forms with d. No end group written: not given here. pGlu = O=C1CC[C@@H](C(=O)O)N1
# Tested on: human corneal epithelial cells (HCE-T)
# Assay: Adhesion of human corneal epithelial cell to extracellular matrix (collagen type IV coated plate)
# Type: cell-based
# Conditions: polypeptide 100 μg/mL, 37° C. 25 min
# Method: An extracellular matrix solution (10 μg/mL, collagen type IV: Becton, Dickinson and Company, catalog No. 354245) was added to a 96 well plate (Iwaki Glass Company, Limited, catalog No. 3860-096). The solution was incubated at 37° C. for 1 hr to coat the plate with the extracellular matrix. After the redundant extracellular matrix solution was removed, 0.1% BSA solution (Sigma-Aldrich Co., catalog No. A3803) was added to block the region not coated with the extracellular matrix. Successively, the BSA solution was removed and the plate was washed twice with PBS, and polypeptides 1-4 (concentration 100 μg/mL) synthesized in Example 1 (Pyr Lac50-83) and Comparative Examples 1-3 (Lac50-83, Pyr Lac50-94, Lac50-94), and negative control polypeptide (Lac24-56, Lac50-65) were added by 50 μl, per well. […]
# Thereafter, the cells were fixed with 10% neutral buffered formaldehyde liquid (NACALAI TESQUE, INC., catalog No. 37152-51), and stained with 1% crystal violet staining solution (Sigma-Aldrich Co., catalog No. C3886). The image of the stained cells was uploaded using an inverted system microscope (Olympus Corporation, IX71), and the area of the adhered cells was measured using Image-Pro Plus Ver. […]
substance,measurement,value
"Pyr Gly Thr Ala Lys Val Thr Ser Ser Arg Gln Glu Leu Asn Pro Leu Lys Ser Ile Val Glu Lys Ser Ile Leu Leu Thr Glu Gln Ala Leu Ala Lys Ala ([pGlu]GTAKVTSSRQELNPLKSIVEKSILLTEQALAKA; listed as Homo sapiens) [polypeptide 1, pyro-modified partial peptide of lacritin]",cell adhesion promoting effect (cell adhesion rate against that without addition of polypeptide as 100%),confirmed to have an activity to promote cell adhesion
Pyr Gly Thr Ala Lys Val Thr Ser Ser Arg Gln Glu Leu Asn Pro Leu Lys Ser Ile Val Glu Lys Ser Ile Leu Leu Thr Glu Gln Ala Leu Ala Lys Ala Gly Lys Gly Met His Gly Gly Val Pro Gly Gly ([pGlu]GTAKVTSSRQELNPLKSIVEKSILLTEQALAKAGKGMHGGVPGG; listed as Homo sapiens) [polypeptide 3],cell adhesion promoting effect (cell adhesion rate against that without addition of polypeptide as 100%),lowered activity as compared to that of polypeptide before pyro-modification
